This is an account of results in patent US10143711B2, “Pathways to generate hair cells” (Massachusetts Eye & Ear Infirmary, priority 2008, dated 2018).

One data set relates to Atoh1 and β-catenin. Nature of the data set: β-catenin and Atoh1 expression in bone marrow derived MSCs on Notch inhibition and β-catenin activation. In kind it is cell-based, human. An excerpt: Notch signaling was inhibited using a γ-secretase inhibitor (DAPT) and β-catenin was activated using a GSK3β inhibitor (GSKi). […] Altered Notch activity was confirmed using CBF-1 luciferase reporter.
Mesenchymal stem cells (MSCs) were isolated from human bone marrow using the methods described by Jeon et al. (Mol. Cell. Neurosci., 34(1):59-68, (2007)). Cells were expanded once before use and cultured in MEM-α cell culture media (Sigma-Aldrich) supplemented with 9% horse serum, 9% fetal calf serum, and penicillin (100 U/mL) and streptomycin (100 μg/mL).

For a further data set, the system named is Atoh1. Nature of the data set: Gene silencing with siRNA in neural progenitor cells and Neuro2a (RT-PCR). In kind it is cell-based, mouse. Conditions: 200 nM siRNA; for decrease of Atoh1 expression: harvested after 48 hours, neural progenitor cells and Neuro2a. How it is done:
The data shown in Examples 1-3 was corroborated using gene silencing. Briefly, siRNA were designed to silence Atoh1 (NM 007500.4, NM 005172.1) and β-catenin (NM_007614.2 and NM_001904.3), as shown below: Atoh1:
200 nM of each siRNA were transfected using the GeneSilencer™ transfection reagent at 5 μL/mL. Cells were incubated in the presence of the transfection mix for 16 hours and were harvested following a total of 48 hours. Non-targetting siRNA was used as control. Gene silencing was confirmed using RT-PCR. Cells were also transfected with Atoh1, β-catenin, or GFP using the methods described above.

Regarding `C[C@H](NC(=O)Cc1cc(F)cc(F)c1)C(=O)N[C@H](C(=O)OC(C)(C)C)c1ccccc1` [γ-secretase inhibitor, N—[N-(3,5-difluorophenacetyl)-L-alanyl]-(S)-phenylglycine t-butyl ester], the β-catenin expression entry in the data set with Atoh1 and β-catenin (human bone marrow MSCs, DAPT used at 10 μM and 50 μM) is “increased”. For the compound “Atoh1 siRNA: siRNA designed to silence Atoh1, SEQ ID NO:16 (GCAACGUUAUCCCGUCCUUUAACAGCGAUGAUGGCACA; listed as RNA, chemistry not given here)”, the “decrease of Atoh1 expression” value in the data set on Atoh1 was “about 45%”. “β-catenin siRNA: siRNA designed to silence β-catenin, SEQ ID NO:17 (GCGCUUGGCUGAACCAUCAUUGUGAAAUUCUUGGCUAUUAUU; listed as RNA, chemistry not given here)”: the Atoh1 expression result in the data set on Atoh1 and β-catenin (MSCs with γ-secretase treatment and siRNA suppression of β-catenin) is given as “reduced”. Further, the β-catenin expression levels entry in the data set with Atoh1 (all cell types tested) is recorded as “suppressed”. In addition, the “decrease of Atoh1 expression” value in the data set with Atoh1 is recorded as “about 40%”.
